Results published in patent US20120270183A1, “METHOD OF TREATING AND/OR PREVENTING CONDITIONS CAUSED BY MICROORGANISMS USING AN ORAL LIGHT DEVICE” (COLGATE-PALMOLIVE COMPANY, priority 2009, published 2012).
Entries after “also recorded” stand apart in the source; their conditions may differ.

Columns and labels:
[1] = test system: biofilm of A. naeslundi; assay: Biofilm reduction by photosensitizer plus light; assay type: cell-based; settings: 0.1% photosensitizer in the presence of light
Procedure: Bacterial biofilms (24 h old) were treated with the photosensitizers or photo-triggered actives described in the tables below at a concentration less than their minimum inhibitory concentration (MIC). The actives were either pre-incubated before light exposure for 2 s to 15 min, typically less than 2 min, or administered at the same time the biofilm was exposed to the light. The bacteria were irradiated at a set wavelength for 2 s to 15 min (typically less than 2 min) at an energy dose between 1-450 J/cm^2. Optical power densities typically ranged from 1-500 mW/cm^2. Light was either pulsed or provided in one continuous light exposure. Pulsed light treatments were preferred for high optical energy treatments.
On a biofilm of A. naeslundi, the impact of four “photosensitizers” (0.1% concentration) in the presence of light was evaluated. MIC typically ranged from 0.0001% (w/v) to 1% (w/v). The percent biofilm reduction is tabulated below.

[2] = test system: TNFα of HEPM cells stimulated by IL-1β; assay: Cytokine (TNFα) concentration in IL-1β stimulated cell culture after light plus dye; assay type: cell-based, human; settings: Fast Green at 1000 ppm combined with light at 625 nm for 2 minutes, 9 mW/cm^2, 1.1 J/cm^2
Procedure: Cells used in this example include human embryonic palatal mesenchymal (HEPM) cells and oral keratinocytes OBA9 cells. The embodiments also can be used with other cells such as human gingival fibroblasts (HGF). Cells were seeded in 24-well plates and cultured until reaching a confluence above 80%. The confluent-stage cells were treated with stimulants such as IL-1β followed by light irradiation alone, or light irradiation combined with GRAS photosensitizing dye. The cells were either pre-incubated in photosensitizing dye before light exposure, or administered at the same time of light exposure. The cells were incubated in photosensitizing dyes for varied amounts of time, the concentration of photosensitizing dyes were varied, and the cell were irradiated with light for varied amounts of time per exposure, as well as irradiation either one time or multiple times, as described below. After irradiation, the cells were incubated at 37° C. The cell culture media was collected after a certain amount of time for cytokine analysis.
The results tabulated below reveal that visible light (various wavelength, 380-700 nm) alone and photosensitizing dye irradiated with visible light (various wavelength, 380-700 nm) have anti-inflammation effect. […]

| SMILES | Biofilm reduction compared to light alone (in words) [1] | Effect on TNFα concentration (in words) [2] |
| --- | --- | --- |
| O=C([O-])C1=NN(c2ccc(S(=O)(=O)[O-])cc2)C(=O)C1N=Nc1ccc(S(=O)(=O)[O-])cc1.[Na+].[Na+].[Na+] (stereo not drawn) [Tartrazine] | increased biofilm reduction compared to light alone | – |
| CCN(Cc1cccc(S(=O)(=O)[O-])c1)c1ccc(C(=C2C=CC(=[N+](CC)Cc3cccc(S(=O)(=O)[O-])c3)C=C2)c2ccc(O)cc2S(=O)(=O)[O-])cc1.[Na+].[Na+] [Fast Green, Fast Green FCF] | increased biofilm reduction compared to light alone | can decrease pro-inflammation cytokine TNFα concentration; also recorded: can reduce concentration of TNFα |
| COc1cc(S(=O)(=O)[O-])c(C)cc1N=Nc1c(O)ccc2cc(S(=O)(=O)[O-])ccc12.[Na+].[Na+] [Allura Red, Allura Red AC] | increased biofilm reduction compared to light alone | – |
| CN(C)c1ccc(C(=C2C=CC(=[N+](C)C)C=C2)c2c(O)c(S(=O)(=O)[O-])cc3cc(S(=O)(=O)[O-])ccc23)cc1.[Na+] [Lissamine Green B] | increased biofilm reduction compared to light alone | – |
| Cc1cc2nc3c(=O)[nH]c(=O)nc-3n(C[C@H](O)[C@H](O)[C@H](O)CO)c2cc1C [Riboflavin] | increased biofilm reduction compared to light alone | – |
